This is an account of results in patent US11090364B2, “Conjugates of a pharmaceutical agent and a moiety capable of binding to a glucose sensing protein” (SANOFI, priority 2016, dated 2021).

One test concerns erythrocytes. Put plainly: Erythrocyte dialysis assay (6-NBD-Glc, Rapid Equilibrium Dialysis). In kind it is binding, rat. The note with it: competition with 6-NBD-Glc. The text has this:
3. Erythrocyte Dialysis Assay
Here 6-NBD-Glc or alternatively 2-NBD-Glc was used in dialysis based competition experiments.
Freshly isolated heparinized rat blood samples were immideately diluted (1:5) in PBS buffer to generate a stable stock solution. This stock solution was further diluted (1:1 or 1:3) for the following dialysis experiments in Rapid Equilibrium Dialysis (RED) devices (Thermo Scientific Pierce).
The aforementioned stock solution was further diluted (1:1 or 1:3 respectively) and added to the dialysis compartiment of a RED device. In parallel stock solution was diluted (1:1) with buffer containing 6 NBD Glc (25 μM).
Dialyses was started by addition of 6 NBD Glc (25 μM) in PBS Buffer (k^on) or pure PBS buffer (ko^off) respectively into the buffer compartiment. Aliquots (20 μl) were taken after defined time intervals from the buffer compartiment and fluorescence was measured in a UV plate reader (Thermovarioskan, Thermo).
As a control, free diffusion of 6-NBD-Glc (25 μM) in PBS buffer vs pure buffer was measured.
Glucose dependency was determined following the protocol described above, comparing the following solutions: 6 NBD-Glc (100 μM), 6 NBD-Glucose (100 μM)+Glucose 20 mM. Data are shown in the next table
Example 102 was investigated in a competition experiment following the same protocol using a 6-NBD-Glc solution (100 μM) in comparison to 6 NBD-Glucose (100 μM)+Example 102 (50 μM).
In general terms: Equilibrium dialysis compares concentrations on both sides of a semipermeable membrane.

Another test relates to HepG2 cells. Briefly: HepG2 assay: 14C 2-deoxy-D-glucose transport into HepG2 cells. The note with it: Homo sapiens, test compound 100 μM. Format: cell-based. The protocol:
For measurement of ^14C 2-deoxy-D-glucose transport into HepG2 cells, cells were seeded in collagen treated 96-well plates (Cytostar-T Plates Perkin Elmer, 40.000 cells/200 μ/well) in medium complete (MEM W/GLUT-I, EARLES (Gibco #41090) /NEAA/PS/10% FCS) and grown for 48 hours. After starvation for 2 hours with MEM W/GLUT-I, EARLES (Gibco #41090)/NEAA/no serum 100 μl/well and washing twice with 200 μL KRB buffer, cells were stimulated in a dose dependent manner by adding 20 μL of test compound dilution 0-750 μM (7.5 times higher concentration than final) or 20 μL of 188 μM Cytochalasin B solution as negative control, to 80 μL KRB buffer and incubated for 30 minutes. After compound stimulation, the transport of ^14C 2-deoxy-D-glucose was started by adding of 50 μL ^14C 2-deoxy-D-glucose solution (250 μM 2-deoxy-D-glucose cold and 15 μM ^14C 2-deoxy-D-glucose 0.13 μCi/well) for 20 minutes. Transport was stopped by adding 50 μL/well 40 μM Cytochalasin B solution. Plates were measured in a 96-well Wallac Microbeta device. The cpm (counts per minute) values were used to determine the % inhibition values for the test compounds within each experiment, which then are averaged over the number of experiments performed.

As to `OC1O[C@H](CN2CCN(c3ccc(Cl)cc3)CC2)[C@H](O)[C@H](O)[C@H]1O` (stereo partly drawn) [Example 102, (3R,4S,5R,6R)-6-[[4-(4-Chlorophenyl)piperazin-1-yl]methyl]tetrahydropyran-2,3,4,5-tetrol], the “Fluorescence intensity of 6-NBD-Glc in competition with Example 102 [25 μM]” value is recorded as 0 AU in the test on erythrocytes (0 min); 4.9 AU in the test on erythrocytes (15 min); 11.1 AU with erythrocytes (30 min); 12.5 AU with erythrocytes (60 min); 19.3 AU in the test with erythrocytes (90 min); 25.1 AU with erythrocytes (120 min). In addition, the “Fluorescence intensity of 6-NBD-Glc in competition with Example 102 [25 μM]” value with erythrocytes (180 min) is 32.1 AU. In addition, the “Slope of fluorescence intensity vs time in comparison to control” value in the test on erythrocytes was “clear increase in the slope”. Broadly, the inhibition is the percentage by which the read-out fell short of the control. Low readings indicate a weak effect, high ones a strong effect. Take `Cc1ccc(-c2nc(C)c(-c3cn([C@H]4C(O)O[C@H](CO)[C@@H](O)[C@@H]4O)nn3)c(Cl)n2)cc1` (stereo partly drawn) [Example 61, (3R,4R,5S,6R)-3-[4-[4-Chloro-6-methyl-2-(p-tolyl)pyrimidin-5-yl]triazol-1-yl]-6-(hydroxymethyl)tetrahydropyran-2,4,5-triol]: in the test on HepG2 cells, the inhibition at 100 µM was found to be 9.42%.

Turning to `CC(=O)O[C@@H]1O[C@H](C(=O)N2CCN(C(C)C)CC2)[C@@H](OC(C)=O)[C@H](OC(C)=O)[C@H]1OC(C)=O` [Example 6, [(2S,3R,4S,5S,6S)-2,3,5-Triacetoxy-6-(4-isopropylpiperazine-1-carbonyl)tetrahydropyran-4-yl] acetate], the inhibition at 100 µM in the test with HepG2 cells was 7.75%. Same read-out and setting: the result for `Cc1ccc(-c2cn([C@H]3C(O)O[C@H](CO)[C@@H](O)[C@@H]3O)nn2)cc1` (stereo partly drawn) [Example 56, (3R,4R,5S,6R)-6-(Hydroxymethyl)-3-[4-(p-tolyl)triazol-1-yl]tetrahydropyran-2,4,5-triol] reads 21.1%; that for `CC(=O)O[C@@H]1O[C@H](C(=O)N2CCN(C(C)(C)C)CC2)[C@@H](OC(C)=O)[C@H](OC(C)=O)[C@H]1OC(C)=O` [Example 7, [(2S,3R,4S,5S,6S)-2,3,5-Triacetoxy-6-(4-tert-butylpiperazine-1-carbonyl)tetrahydropyran-4-yl] acetate], 6.99%.

In turn, `CC(C)(C)N1CCN(C(=O)[C@H]2OC(O)[C@H](O)[C@@H](O)[C@@H]2O)CC1` (stereo partly drawn) [Example 27, (4-tert-Butylpiperazin-1-yl)-[(2S,3S,4S,5R)-3,4,5,6-tetrahydroxytetrahydropyran-2-yl]methanone] yielded an inhibition at 100 µM with HepG2 cells of 13.1%. `COc1ccccc1N1CCN(C(=O)[C@H]2OC(O)[C@H](O)[C@@H](O)[C@@H]2O)CC1` (stereo partly drawn) [Example 39, [4-(2-Methoxyphenyl)piperazin-1-yl]-[(2S,3S,4S,5R)-3,4,5,6-tetrahydroxytetrahydropyran-2-yl]methanone] came in with an inhibition at 100 µM in the test on HepG2 cells of 11%. In the case of `CC(=O)O[C@@H]1OC(CN2CCN(Cc3ccc4c(c3)OCO4)CC2)=C[C@H](OC(C)=O)[C@H]1OC(C)=O` [Example 47, [(2S,3R,4S)-2,3-Diacetoxy-6-[[4-(1,3-benzodioxol-5-ylmethyl)piperazin-1-yl]methyl]-3,4-dihydro-2H-pyran-4-yl] acetate], in the test with HepG2 cells, the inhibition at 100 µM came out at 13.8%. `CC(=O)O[C@@H]1OC(CN2CCN(c3ccccc3Cl)CC2)=C[C@H](OC(C)=O)[C@H]1OC(C)=O` [Example 49, [(2S,3R,4S)-2,3-Diacetoxy-6-[[4-(2-chlorophenyl)piperazin-1-yl]methyl]-3,4-dihydro-2H-pyran-4-yl] acetate]: in the test with HepG2 cells, testing at 100 µM gave an inhibition of 19.9%. Compound `O=C([C@H]1OC(O)[C@H](O)[C@@H](O)[C@@H]1O)N1CCN(Cc2ccc3c(c2)OCO3)CC1` (stereo partly drawn) [Example 40, [4-(1,3-Benzodioxol-5-ylmethyl)piperazin-1-yl]-[(2S,3S,4S,5R)-3,4,5,6-tetrahydroxytetrahydropyran-2-yl]methanone] gave an inhibition at 100 µM with HepG2 cells of 10.1%. In the case of `CCN1CCN(C(=O)[C@H]2OC(O)[C@H](O)[C@@H](O)[C@@H]2O)CC1` (stereo partly drawn) [Example 22, (4-Ethylpiperazin-1-yl)-[(2S,3S,4S,5R)-3,4,5,6-tetrahydroxytetrahydropyran-2-yl]methanone], the inhibition at 100 µM in the test with HepG2 cells worked out at 11.4%. Still for that read-out and setting: the result for `CC(=O)O[C@@H]1O[C@H](C(=O)N2CCN(C)CC2)[C@@H](OC(C)=O)[C@H](OC(C)=O)[C@H]1OC(C)=O` [Example 1, [(2S,3R,4S,5S,6S)-2,3,5-Triacetoxy-6-(4-methylpiperazine-1-carbonyl)tetrahydropyran-4-yl] acetate] reads 6.32%. In the case of `CC(=O)O[C@@H]1OC(CN2CCN(C/C=C/c3ccccc3)CC2)=C[C@H](OC(C)=O)[C@H]1OC(C)=O` [Example 46, [(2S,3R,4S)-2,3-Diacetoxy-6-[[4-[(E)-cinnamyl]piperazin-1-yl]methyl]-3,4-dihydro-2H-pyran-4-yl] acetate], 100 µM produced 8.76% inhibition with HepG2 cells. On the same count and under the same terms, the result for `CC(=O)O[C@@H]1OC(CN2CCN(c3ccc(Cl)cc3)CC2)=C[C@H](OC(C)=O)[C@H]1OC(C)=O` [Example 48, [(2S,3R,4S)-2,3-Diacetoxy-6-[[4-(4-chlorophenyl)piperazin-1-yl]methyl]-3,4-dihydro-2H-pyran-4-yl] acetate] reads 28.8%; that for `CC(=O)O[C@@H]1O[C@H](C(=O)N2CCN(c3ccccc3)CC2)[C@@H](OC(C)=O)[C@H](OC(C)=O)[C@H]1OC(C)=O` [Example 12, [(2S,3R,4S,5S,6S)-2,3,5-Triacetoxy-6-(4-phenylpiperazine-1-carbonyl)tetrahydropyran-4-yl] acetate], 5.43%. The same measure, in the same setting: under `C=CCN1CCN(C(=O)[C@H]2OC(O)[C@H](O)[C@@H](O)[C@@H]2O)CC1` (stereo partly drawn) [Example 28, (4-Allylpiperazin-1-yl)-[(2S,3S,4S,5R)-3,4,5,6-tetrahydroxytetrahydropyran-2-yl]methanone] stands 9.95%; under `CCN1CCN(C(=O)[C@H]2O[C@@H](OC(C)=O)[C@H](OC(C)=O)[C@@H](OC(C)=O)[C@@H]2OC(C)=O)CC1` [Example 2, [(2S,3R,4S,5S,6S)-2,3,5-Triacetoxy-6-(4-ethylpiperazine-1-carbonyl)tetrahydropyran-4-yl] acetate], 6.5%. Same read-out and setting: under `COc1ccccc1N1CCN(C(=O)[C@H]2O[C@@H](OC(C)=O)[C@H](OC(C)=O)[C@@H](OC(C)=O)[C@@H]2OC(C)=O)CC1` [Example 19, [(2S,3R,4S,5S,6S)-2,3,5-Triacetoxy-6-[4-(2-methoxyphenyl)piperazine-1-carbonyl]tetrahydropyran-4-yl] acetate] stands 6.89%. The compound `O=C([C@H]1OC(O)[C@H](O)[C@@H](O)[C@@H]1O)N1CCN(c2ccc(Br)cc2)CC1` (stereo partly drawn) [Example 36, [4-(4-Bromophenyl)piperazin-1-yl]-[(2S,3S,4S,5R)-3,4,5,6-tetrahydroxytetrahydropyran-2-yl]methanone] showed an inhibition at 100 µM in the test with HepG2 cells of 20.6%.
